Experimental data from patent US20130303509A1, “NAMPT INHIBITORS” (AbbVie Inc., priority 2012, published 2013).

These compounds were tested on PC3 cells (assay: NAMPT Cell Proliferation Assay). Conditions: Homo sapiens, PC-3, 120 h, 5 days incubation, cell viability by Cell Titer Glo.
Assay type: cell-based
Summary of the method: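 Seeded at 500 cells/well in RPMI with 10% heat-inactivated FBS and left to attach overnight at 37° C, 5% CO2. Compounds were added as 10-fold dilutions […] for 5 days, then viability was read by CellTiter-Glo. IC50s came from sigmoidal fits of percent inhibition.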

`O=C(Nc1ccc(S(=O)(=O)C2CCN(C(=O)c3cccc(C(F)(F)F)c3)CC2)cc1)C1CN(c2cccnn2)C1` [Example 584, 1-(pyridazin-3-yl)-N-[4-({1-[3-(trifluoromethyl)benzoyl]piperidin-4-yl}sulfonyl)phenyl]azetidine-3-carboxamide] and `O=C(Nc1ccc(S(=O)(=O)C2CCN(C(=O)c3ccc(C(F)(F)F)cc3)CC2)cc1)C1CN(c2cccnn2)C1` [Example 587, 1-(pyridazin-3-yl)-N-[4-({1-[4-(trifluoromethyl)benzoyl]piperidin-4-yl}sulfonyl)phenyl]azetidine-3-carboxamide] are within 1.5-fold of each other in IC50: 87.2 nM for the first, 81.4 nM for the second.

First: O=C(Nc1ccc(S(=O)(=O)C2CCN(C(=O)Cc3cc(F)cc(F)c3)CC2)cc1)C1CN(c2cccnn2)C1 [Example 585, N-[4-({1-[(3,5-difluorophenyl)acetyl]piperidin-4-yl}sulfonyl)phenyl]-1-(pyridazin-3-yl)azetidine-3-carboxamide]
Second: O=C(Nc1ccc(S(=O)(=O)C2CCN(C(=O)c3cc(F)cc(F)c3)CC2)cc1)C1CN(c2cccnn2)C1 [Example 593, N-(4-{[1-(3,5-difluorobenzoyl)piperidin-4-yl]sulfonyl}phenyl)-1-(pyridazin-3-yl)azetidine-3-carboxamide]
The IC50 of the first is 4.5-fold higher: 283 nM for the first, 63.4 nM for the second. The second is the more potent here.

`O=C(Nc1ccc(S(=O)(=O)C2CCN(C(=O)c3ccc(F)cc3F)CC2)cc1)C1CN(c2cccnn2)C1` [Example 586, N-(4-{[1-(2,4-difluorobenzoyl)piperidin-4-yl]sulfonyl}phenyl)-1-(pyridazin-3-yl)azetidine-3-carboxamide] and `O=C(Nc1ccc(S(=O)(=O)C2CCN(C(=O)c3cccc(F)c3F)CC2)cc1)C1CN(c2cccnn2)C1` [Example 589, N-(4-{[1-(2,3-difluorobenzoyl)piperidin-4-yl]sulfonyl}phenyl)-1-(pyridazin-3-yl)azetidine-3-carboxamide] are within 1.5-fold of each other in IC50: 107 nM for the first, 97.9 nM for the second.

Compared with `O=C(Nc1ccc(S(=O)(=O)C2CCN(C(=O)c3ccc(F)cc3)CC2)cc1)C1CN(c2cccnn2)C1` [Example 588, N-(4-{[1-(4-fluorobenzoyl)piperidin-4-yl]sulfonyl}phenyl)-1-(pyridazin-3-yl)azetidine-3-carboxamide], `O=C(Nc1ccc(S(=O)(=O)C2CCN(C(=O)c3ccc(F)cc3)CC2)cc1)C1CN(c2ccnnc2)C1` [Example 616, N-(4-{[1-(4-fluorobenzoyl)piperidin-4-yl]sulfonyl}phenyl)-1-(pyridazin-4-yl)azetidine-3-carboxamide] is 65-fold higher in IC50: 113 nM for the first, 7290 nM for the second.

`O=C(Nc1ccc(S(=O)(=O)C2CCN(C(=O)c3ccc(Cl)cc3Cl)CC2)cc1)C1CN(c2cccnn2)C1` [Example 590, N-(4-{[1-(2,4-dichlorobenzoyl)piperidin-4-yl]sulfonyl}phenyl)-1-(pyridazin-3-yl)azetidine-3-carboxamide] and `O=C(Nc1ccc(S(=O)(=O)C2CCN(C(=O)c3ccccc3Cl)CC2)cc1)C1CN(c2cccnn2)C1` [Example 611, N-(4-{[1-(2-chlorobenzoyl)piperidin-4-yl]sulfonyl}phenyl)-1-(pyridazin-3-yl)azetidine-3-carboxamide] are within 1.5-fold of each other in IC50: 82.2 nM for the first, 90 nM for the second.

Going from `O=C(Nc1ccc(S(=O)(=O)C2CCN(C(=O)c3cccc4ccccc34)CC2)cc1)C1CN(c2cccnn2)C1` [Example 591, N-(4-{[1-(naphthalen-1-ylcarbonyl)piperidin-4-yl]sulfonyl}phenyl)-1-(pyridazin-3-yl)azetidine-3-carboxamide] to `O=C(Nc1ccc(S(=O)(=O)C2CCN(C(=O)Cc3ccccc3)CC2)cc1)C1CN(c2cccnn2)C1` [Example 600, N-(4-{[1-(phenylacetyl)piperidin-4-yl]sulfonyl}phenyl)-1-(pyridazin-3-yl)azetidine-3-carboxamide], the IC50 rises from 93.6 nM to 219 nM (2.3-fold). The first is the more potent here.

First: O=C(Nc1ccc(S(=O)(=O)C2CCN(C(=O)C3CC3)CC2)cc1)C1CN(c2cccnn2)C1 [Example 592, N-(4-{[1-(cyclopropylcarbonyl)piperidin-4-yl]sulfonyl}phenyl)-1-(pyridazin-3-yl)azetidine-3-carboxamide]
Second: O=C(Nc1ccc(S(=O)(=O)C2CCN(C(=O)C3CCCC3)CC2)cc1)C1CN(c2cccnn2)C1 [Example 599, N-(4-{[1-(cyclopentylcarbonyl)piperidin-4-yl]sulfonyl}phenyl)-1-(pyridazin-3-yl)azetidine-3-carboxamide]
The IC50 of the first is 7.8-fold higher: 620 nM for the first, 79.7 nM for the second.

Compared with `CC(C)(C)C(=O)N1CCC(S(=O)(=O)c2ccc(NC(=O)C3CN(c4cccnn4)C3)cc2)CC1` [Example 594, N-(4-{[1-(2,2-dimethylpropanoyl)piperidin-4-yl]sulfonyl}phenyl)-1-(pyridazin-3-yl)azetidine-3-carboxamide], `CC(C)(C)CC(=O)N1CCC(S(=O)(=O)c2ccc(NC(=O)C3CN(c4cccnn4)C3)cc2)CC1` [Example 595, N-(4-{[1-(3,3-dimethylbutanoyl)piperidin-4-yl]sulfonyl}phenyl)-1-(pyridazin-3-yl)azetidine-3-carboxamide] is 1.7-fold higher in IC50: 47.8 nM for the first, 80.6 nM for the second.

Compared with `COc1cccc(C(=O)N2CCC(S(=O)(=O)c3ccc(NC(=O)C4CN(c5cccnn5)C4)cc3)CC2)c1` [Example 596, N-(4-{[1-(3-methoxybenzoyl)piperidin-4-yl]sulfonyl}phenyl)-1-(pyridazin-3-yl)azetidine-3-carboxamide], `O=C(Nc1ccc(S(=O)(=O)C2CCN(C(=O)Cc3ccccc3F)CC2)cc1)C1CN(c2cccnn2)C1` [Example 613, N-[4-({1-[(2-fluorophenyl)acetyl]piperidin-4-yl}sulfonyl)phenyl]-1-(pyridazin-3-yl)azetidine-3-carboxamide] is 8.4-fold higher in IC50: 84.6 nM for the first, 707 nM for the second. The first is the more potent here.

Going from `CC(C)CC(=O)N1CCC(S(=O)(=O)c2ccc(NC(=O)C3CN(c4cccnn4)C3)cc2)CC1` [Example 597, N-(4-{[1-(3-methylbutanoyl)piperidin-4-yl]sulfonyl}phenyl)-1-(pyridazin-3-yl)azetidine-3-carboxamide] to `CC(C)CCC(=O)N1CCC(S(=O)(=O)c2ccc(NC(=O)C3CN(c4cccnn4)C3)cc2)CC1` [Example 612, N-(4-{[1-(4-methylpentanoyl)piperidin-4-yl]sulfonyl}phenyl)-1-(pyridazin-3-yl)azetidine-3-carboxamide], the IC50 falls from 117 nM to 53.6 nM (2.2-fold). The second is the more potent here.

First: CC(C)C(=O)N1CCC(S(=O)(=O)c2ccc(NC(=O)C3CN(c4cccnn4)C3)cc2)CC1 [Example 598, N-(4-{[1-(2-methylpropanoyl)piperidin-4-yl]sulfonyl}phenyl)-1-(pyridazin-3-yl)azetidine-3-carboxamide]
Second: CC(C)C(=O)N1CCC(S(=O)(=O)c2ccc(NC(=O)C3CN(c4ccnnc4)C3)cc2)CC1 [Example 614, N-(4-{[1-(2-methylpropanoyl)piperidin-4-yl]sulfonyl}phenyl)-1-(pyridazin-4-yl)azetidine-3-carboxamide]
The IC50 of the first is 37-fold lower: 208 nM for the first, 7660 nM for the second. The first is the more potent here.

Compared with `O=C(Nc1ccc(S(=O)(=O)C2CCN(C(=O)C3(c4ccccc4)CC3)CC2)cc1)C1CN(c2cccnn2)C1` [Example 601, N-[4-({1-[(1-phenylcyclopropyl)carbonyl]piperidin-4-yl}sulfonyl)phenyl]-1-(pyridazin-3-yl)azetidine-3-carboxamide], `O=C(Nc1ccc(S(=O)(=O)C2CCN(C(=O)c3ccccc3)CC2)cc1)C1CN(c2ccnnc2)C1` [Example 615, N-{4-[(1-benzoylpiperidin-4-yl)sulfonyl]phenyl}-1-(pyridazin-4-yl)azetidine-3-carboxamide] is 64-fold higher in IC50: 96.8 nM for the first, 6150 nM for the second.

Compared with `CC(C)(N)C(=O)N1CCC(c2ccc(NC(=O)C3CN(c4cccnc4)C3)cc2)CC1` [Example 602, N-{4-[1-(2-methylalanyl)piperidin-4-yl]phenyl}-1-(pyridin-3-yl)azetidine-3-carboxamide], `CC(C)(C(=O)N1CCC(c2ccc(NC(=O)C3CN(c4cccnc4)C3)cc2)CC1)N1CCNCC1` [Example 610, N-(4-{1-[2-methyl-2-(piperazin-1-yl)propanoyl]piperidin-4-yl}phenyl)-1-(pyridin-3-yl)azetidine-3-carboxamide] is 4-fold higher in IC50: 2 nM for the first, 7.9 nM for the second.

`CC(C)Cn1cc(-c2ccc(C(=O)N[C@@H]3CCN(c4cccnc4)C3)s2)cn1` [Example 603, 5-[1-(2-methylpropyl)-1H-pyrazol-4-yl]-N-[(3R)-1-(pyridin-3-yl)pyrrolidin-3-yl]thiophene-2-carboxamide] and `CC(C)Cn1cc(-c2ccc(C(=O)N[C@H]3CCN(c4cccnc4)C3)s2)cn1` [Example 608, 5-[1-(2-methylpropyl)-1H-pyrazol-4-yl]-N-[(3S)-1-(pyridin-3-yl)pyrrolidin-3-yl]thiophene-2-carboxamide] are within 1.5-fold of each other in IC50: 576 nM for the first, 712 nM for the second.

`CC(C)Cn1cc(-c2ccc(C(=O)N[C@@H]3CCN(c4ccnnc4)C3)s2)cn1` [Example 604, 5-[1-(2-methylpropyl)-1H-pyrazol-4-yl]-N-[(3R)-1-(pyridazin-4-yl)pyrrolidin-3-yl]thiophene-2-carboxamide] and `CC(C)Cn1cc(-c2ccc(C(=O)N[C@H]3CCN(c4ccnnc4)C3)s2)cn1` [Example 607, 5-[1-(2-methylpropyl)-1H-pyrazol-4-yl]-N-[(3S)-1-(pyridazin-4-yl)pyrrolidin-3-yl]thiophene-2-carboxamide] are within 1.5-fold of each other in IC50: 8260 nM for the first, 7650 nM for the second.

Going from `CC(C)Cn1cc(-c2ccc(C(=O)N[C@@H]3CCN(c4cccnn4)C3)s2)cn1` [Example 605, 5-[1-(2-methylpropyl)-1H-pyrazol-4-yl]N-[(3R)-1-(pyridazin-3-yl)pyrrolidin-3-yl]thiophene-2-carboxamide] to `CC(C)Cn1cc(-c2ccc(C(=O)N[C@H]3CCN(c4cccnn4)C3)s2)cn1` [Example 606, 5-[1-(2-methylpropyl)-1H-pyrazol-4-yl]-N-[(3S)-1-(pyridazin-3-yl)pyrrolidin-3-yl]thiophene-2-carboxamide], the IC50 falls from 1400 nM to 86.7 nM (16-fold). The second is the more potent here.

In the case of `CC(C)(C)OC(=O)N1CCN(C(C)(C)C(=O)N2CCC(c3ccc(NC(=O)C4CN(c5cccnc5)C4)cc3)CC2)CC1` [Example 609, tert-butyl 4-(2-methyl-1-oxo-1-{4-[4-({[1-(pyridin-3-yl)azetidin-3-yl]carbonyl}amino)phenyl]piperidin-1-yl}propan-2-yl)piperazine-1-carboxylate], the IC50 is reported as 2.05 nM.
